Assay results taken from US20050038022A1, “Method for treatment of cancer and compositions for use therein” (Unisearch Limited, priority 2001, published 2005).

Experiments:
C-170, LOVO and HT-29 = experiment: Albendazole/ABS proliferation test, colorectal cell lines; assay type: cell-based; settings: C-170, LOVO and HT-29, 5 days, 0.5% DMSO
Protocol: (§1) In order to be able to test ABS, a proper solvent had to be found. […] Therefore to allow direct comparison between the 2 compounds, all subsequent experiments were run using 0.5% DMSO for both ABS and albendazole. In the cell lines examined, albendazole produced very similar results to what we had previously reported for the drug in liver cancer cells.
(§2) Both albendazole and ABS were tested side by side against various cell lines as follows: • Liver—HepGZ Hep3B, SKHEP-1 • Colorectal—170, LOVO, HT-29 • Prostate—PC3, LNCap, Du145 • Leukeamic—HL60
(§3) Cells were treated with various concentrations of each compound for a period of 5 days.

Solubility in solvent = assay type: physicochemical
Description: as §1

[1] = sulphoxide metabolite after oral albendazole, man; cited from earlier work
[2] = tested on: HepG2, SKHEP-1 and Hep 3B; experiment: Albendazole/ABS proliferation test, liver cancer cells; assay type: cell-based, human; settings: 5 days, 0.5% DMSO
Protocol: as §1, §2, §3

PC3, LNCap and Du 145 = experiment: Albendazole/ABS proliferation test, prostate cancer cells; assay type: cell-based, human; settings: PC3, LNCap and Du 145; ABS compared with albendazole
Protocol: as §1, §2, §3

[3] = tested on: liver, colorectal, prostate and leukeamic cell lines; experiment: Albendazole/ABS side by side in various cell lines (general); assay type: cell-based
Protocol: as §1, §2
The fist 9 cell lines were used to compare effectiveness and potency while, the last one was used to assess toxicity on bone marrow (as a rough guide).
as §3

CCC[S+]([O-])c1ccc2[nH]c(NC(=O)OC)nc2c1 (stereo not shown) [ABS, albendazole sulphoxide]
activity against colorectal cell lines (C-170, LOVO and HT-29): same sort of activity
solubility in ethanol (Solubility in solvent): not soluble in ethanol
peak plasma concentrations [1]: 200 to 300 ng/mL
plasma half life [1]: 8 to 9 h
proliferation of human liver cancer cells [2]: inhibit proliferation
potency in inhibiting proliferation, metabolite versus drug (PC3, LNCap and Du 145): almost equipotent
antiproliferative activity at 0.25 micromoles/L ([3]; 0.25 micromoles/L, 5 days): dramatically increasing
effectiveness compared with parent drug ([3]; 10 different cell lines, earlier results, latest results cast doubt): as effective as the parent drug
inhibition at 1 µM ([3]; 120 h, 1 micromoles/L, 5 days): ~100%
concentration at which antiproliferative activity becomes evident ([3]; 5 days, 0.5% DMSO, in general): 0.01 µmol/L
